Reference: US4049660A, “N-substituted derivatives of 4 (N-piperazinylmethyl) spiro dibenzocycloheptadi- (or tri-) ene-5, 2-dioxolane (1,3) their method of preparation and their application in therapeutics” (Delalande S.A., priority 1971, dated 1977)
Where two headings read alike, the source gives them in different places.

Columns and labels:
[1] = test system: local edema caused by carraghenine; experiment: Antiinflammatory: local plantar edema caused by carraghenine in rat; type: in vivo; settings: 100 mg/kg/PO
Source text: These properties bring about a reduction of the local edema, caused by injecting a rat under the plantar with a phlogogenic agent such as carraghenine, following oral administration of compounds of formula (I).

[2] = test system: painful stretchings following intraperitoneal injection of acetic acid; experiment: Analgesic: painful stretchings following intraperitoneal acetic acid in mouse; type: in vivo; settings: 100 mg/kg/PO, read-out: Percentage reduction in the number of painful stretchings
Source text: The compounds of formula (I) administered orally to a mouse are capable of reducing the number of painful stretchings following the intraperitoneal injection of acetic acid.

[3] = test system: isolated duodenum of a rat (barium chloride); experiment: Spasmolytic: contraction by barium chloride of isolated duodenum of a rat; settings: for Spasmolytic activity: relative to papaverine as the standard
Procedure: Compounds of formula I, introduced in the survival medium, are capable of opposing the contacting action of barium chloride on the isolated duodenum of a rat. This activity is determined either by taking papaverine as the standard or by calculating the DE50 of the compound tested.

[4] = Acute toxicity / mortality, oral, mice; type: in vivo; settings: mouse, in vivo; for mortality: read-out: Percentage of mortality with mice; for LD50: oral
Source text: As is shown by the preceding results and by those given in Table XIV below, the difference between pharmacologically active doses and lethal doses is sufficiently great to allow the use of compounds of formula (I) in therapeutics.

[5] = test system: isolated ileum of a guinea pig (histamine); experiment: Antihistamine: contraction by histamine of isolated ileum of a guinea pig
Procedure: The compounds of formula (I) introduced in the survival medium are able to oppose the contracting action of histamine on the isolated ileum of a guinea pig. This activity is calculated by the DE50 of the tested compounds.

[6] = test system: urinary elimination; experiment: Diuretic: volume of urine in mouse; type: in vivo; settings: 4 hours, versus controls, read-out: Percentage increase in urinary elimination
Procedure: The compounds of formula (I) administered orally to a mouse simultaneously with a volume of 1 ml of sodium chloride isotonic solute per 25 g of body weight are able to cause an increase of the volume of urine given compared with controls, this volume being measured for the 4 hours following administration.

[7] = test system: ptosis caused by reserpine; experiment: Anti-depressive: antagonism against ptosis caused by intravenous reserpine; type: in vivo; settings: for ED50: po, read-out: Antagonism against ptosis caused by reserpine (DE50)
Procedure: (§1) In this regard, the compounds of formula I differ unexpectedly from the compounds of U.S. Pat. No. 3,726,900, as shown by comparative testing.
(§2) The anti-depressive properties of additional analog compounds were tested by the same tests. In these tests, the comparison compounds had the formula [drawing 28] The specific compounds tested and the test results are indicated in Table XIII.

[8] = test system: bronchoconstrictions provoked by serotonine; experiment: Antiserotonine: bronchoconstrictions provoked by intravenous serotonine in guinea pigs (Konzett and Rossler test); type: in vivo; settings: Cavia porcellus, serotonine bronchoconstriction, read-out: Test of Konzett and Rossler DE50
Source text: (§3) For purposes of comparison, compounds of the formula (I) were compared, as to their antiserotonine properties, with a respresentative sampling of compounds disclosed in U.S. Pat. No. 3,726,900. The comparison compounds tested have the formula [drawing 23]

[9] = test system: lethal effect of yohimbine; experiment: Anti-depressive: potentialization of lethal effect of yohimbine; type: in vivo
Procedure: as §1, §2

[10] = test system: arterial pressure; experiment: Hypotensive: arterial pressure of anaesthetized rat; type: in vivo; settings: 2 mg/kg/IV
Source text: Administered intravenously to an anaesthetized rat, the compounds of formula (I) cause a lowering of arterial pressure.

[11] = test system: ventricular fibrillations caused by inhaling chloroform; experiment: Antiarythmic: ventricular fibrillations caused by inhaling chloroform in mouse; type: in vivo; settings: ip, intraperitoneal, read-out: Antagonism to fibrillations caused by chloroform with a mouse, DE50
Source text: Administered intraperitoneally, the compounds of formula (I) are able to protect the mouse against ventricular fibrillations caused by inhaling chloroform.

[12] = test system: isolated fundus of rats (serotonine); experiment: Antiserotonine: contractions of the isolated fundus of rats provoked by serotonine; settings: in vitro
Source text: as §3

[13] = test system: cough caused by stimulation of the upper laryngeal nerve; experiment: Anti-cough: cough caused by stimulation of the upper laryngeal nerve in an anaesthetized cat; type: in vivo; settings: 2 mg/kg/IV
[14] = test system: isolated tied uterus (serotonine); experiment: Antiserotonine: contractions of the isolated tied uterus provoked by serotonine; settings: in vitro
Source text: as §3

[15] = mice, Table XI, read-out: LD50 (mice)
[16] = at 100 mg/kg/PO, result in words
[17] = at 50 mg/kg/PO, result in words

SMILES: OCC(O)CN1CCN(CC2COC3(O2)c2ccccc2C=Cc2ccccc23)CC1 (stereo not drawn) [compound 72196]
- Percentage reduction of the edema [1]: 70%
- inhibition in vivo at 100 mg/kg [2]: 45%
- DE50 (spasmolytic) [3]: 0.25 µg/mL
- mortality ([4]; 1100 mg/kg/PO): ~50%
- LD50 [4, 15]: 1100 mg/kg
- Antihistamine activity DE50 [5]: 1 µg/mL
- change in vivo at 12.5 mg/kg ([6]; 12.5 mg/kg/PO): 40%

SMILES: CCOC(=O)CN1CCN(CC2COC3(O2)c2ccccc2CCc2ccccc23)CC1 (stereo not drawn) [compound 70365]
- inhibition in vivo at 100 mg/kg [2]: 75%
- Antagonism against ptosis caused by reserpine ([7]; at 100 mg/kg/PO): Inactive
- Spasmolytic activity [3]: 3 × papaverine
- mortality ([4]; 1250 mg/kg/PO): ~50%
- LD50 [4, 15]: 1250 mg/kg
- ED50 [8]: 0.6 mg/kg
- Potentialization of lethal effect of yohimbine [9, 16]: Inactive

SMILES: CCC(C)NCC1COC2(O1)c1ccccc1CCc1ccccc12 (stereo not drawn) [R = C4 H9 (s) (--Z-- = --CH2 --CH2 --), reference compound]
- ED50 ([7]; Table XIII): 45 mg/kg
- LD50 ([4]; Table XIII, read-out: LD50): 900 mg/kg
- Potentialization of lethal effect of yohimbine ([9]; at 50 mg/kg/PO, Table XIII): ~40%

SMILES: CNCC1COC2(O1)c1ccccc1CCc1ccccc12 (stereo not drawn) [R = CH3 (--Z-- = --CH2 --CH2 --), reference compound]
- ED50 ([7]; Table XIII): 60 mg/kg
- LD50 ([4]; Table XIII, read-out: LD50): 850 mg/kg

SMILES: c1ccc(C(c2ccccc2)N2CCN(CC3COC4(O3)c3ccccc3CCc3ccccc34)CC2)cc1 (stereo not drawn) [compound 70374]
- Antagonism against ptosis caused by reserpine ([7]; at 100 mg/kg/PO): Inactive
- Reduction of arterial pressure, duration [10]: 20 mm
- Reduction of arterial pressure, intensity [10]: 35%
- mortality ([4]; 2000 mg/kg/PO): 0%
- LD50 ([4]; Table XII, read-out: LD50): > 2000 mg/kg
- Potentialization of lethal effect of yohimbine [9, 16]: Inactive

SMILES: CCNCC1COC2(O1)c1ccccc1C=Cc1ccccc12 (stereo not drawn) [R = C2 H5 (--Z-- = --CH = CH--), reference compound]
- ED50 ([7]; Table XIII): 70 mg/kg
- LD50 ([4]; Table XIII, read-out: LD50): 375 mg/kg
- Potentialization of lethal effect of yohimbine ([9]; at 50 mg/kg/PO, Table XIII): 60%

SMILES: CNC(=O)CN1CCN(CC2COC3(O2)c2ccccc2C=Cc2ccccc23)CC1 (stereo not drawn) [compound 72188]
- ED50 [11]: 38 mg/kg
- inhibition in vivo at 100 mg/kg [2]: 60%
- Antagonism against ptosis caused by reserpine [7, 17]: Inactive
- mortality ([4]; 1100 mg/kg/PO): ~50%
- LD50 [4, 15]: 1100 mg/kg
- ED50 [8]: 0.25 mg/kg
- Antihistamine activity DE50 [5]: 1 µg/mL
- change in vivo at 25 mg/kg ([6]; 25 mg/kg/PO): 40%

SMILES: O=C(CN1CCN(CC2COC3(O2)c2ccccc2CCc2ccccc23)CC1)N1CCOCC1 (stereo not drawn) [compound 70357]
- Antagonisms against contractions of fundus of rat, DE50 [12]: 0.54 µg/mL
- Antagonism against ptosis caused by reserpine ([7]; at 100 mg/kg/PO): Inactive
- Reduction of cough, duration [13]: 20 mm
- Reduction of cough, intensity [13]: 100%
- Spasmolytic activity [3]: 1.5 × papaverine
- mortality ([4]; 1300 mg/kg/PO): ~50%
- LD50 [4, 15]: 1300 mg/kg
- ED50 [8]: 0.005 mg/kg
- Potentialization of lethal effect of yohimbine [9, 16]: Inactive
- Antagonisms against contractions of tied uterus, DE50 [14]: 0.005 µg/mL

SMILES: CC(C)NCC1COC2(O1)c1ccccc1C=Cc1ccccc12 (stereo not drawn) [R = C3 H7 (i) (--Z-- = --CH = CH--), reference compound]
- Antagonism against ptosis caused by reserpine ([7]; at 50 mg/kg/PO, Table XIII): 20%
- LD50 ([4]; Table XIII, read-out: LD50): 550 mg/kg

SMILES: CC(C)NC(=O)CN1CCN(CC2COC3(O2)c2ccccc2C=Cc2ccccc23)CC1 (stereo not drawn) [compound 72134]
- ED50 [11]: 65 mg/kg
- Antagonism against ptosis caused by reserpine [7, 17]: Inactive
- mortality ([4]; 1200 mg/kg/PO): ~50%
- LD50 [4, 15]: 1200 mg/kg
- Antihistamine activity DE50 [5]: 1 µg/mL
- change in vivo at 50 mg/kg ([6]; 50 mg/kg/PO): 55%
